In ChEMBL document CHEMBL1201862, “PubChem BioAssay data set” (2004):
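Cultured in 96-well plates, cells were exposed to test compound for 48 hours across five concentrations. GI50 = concentration required for 50% inhibition of growth.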 Active and inactive are the calls of the source. No stated cut-off is given here; in the data, active = GI50 up to about 1.1 µM and inactive = higher.

Experiments:
Experiment in all cases: growth of human tumour cells (NCI), 48 h
ACHN = system: ACHN
OVCAR-3 = system: OVCAR-3
SNB-19 = system: SNB-19
SF-539 = system: SF-539
UACC-257 = system: UACC-257
T47D = system: T47D
PC-3 = system: PC-3
NCI/ADR-RES = system: NCI/ADR-RES
TK-10 = system: TK-10
SK-MEL-2 = system: SK-MEL-2
DU-145 = system: DU-145
SK-MEL-28 = system: SK-MEL-28
KM12 = system: KM12
A549 = system: A549
MCF7 = system: MCF7
786-0 = system: 786-0
UACC-62 = system: UACC-62
OVCAR-4 = system: OVCAR-4
MDA-MB-435 = system: MDA-MB-435
CAKI-1 = system: CAKI-1

SMILES | GI50 (ACHN) | GI50 (OVCAR-3) | GI50 (SNB-19) | GI50 (SF-539) | GI50 (UACC-257) | GI50 (T47D) | GI50 (PC-3) | GI50 (NCI/ADR-RES) | GI50 (TK-10) | GI50 (SK-MEL-2) | GI50 (DU-145) | GI50 (SK-MEL-28) | GI50 (KM12) | GI50 (A549) | GI50 (MCF7) | GI50 (786-0) | GI50 (UACC-62) | GI50 (OVCAR-4) | GI50 (MDA-MB-435) | GI50 (CAKI-1)
COc1cc(Cn2c3c(c4cc(O)ccc42)C(=O)c2ccccc2C3=O)cc(OC)c1 | 1.61 µM (inactive) | 20.6 µM (inactive) | 4.5 µM (inactive) | 2.05 µM (inactive) | 39.2 µM (inactive) | 6.35 µM (inactive) | 2.46 µM (inactive) | 6 µM (inactive) | 11.6 µM (inactive) | 14.7 µM (inactive) | 10.8 µM (inactive) | 7.96 µM (inactive) | 2.43 µM (inactive) | 10.5 µM (inactive) | 12.2 µM (inactive) | 2.37 µM (inactive) | 2.04 µM (inactive) | 4.86 µM (inactive) | 0.743 µM (active) | 15.2 µM (inactive)
C[N+](C)(C)CC(=O)N/N=C(/CC1OC(=O)c2ccccc21)c1ccccc1O (stereo not drawn) | 20.3 µM (inactive) | 62.4 µM (inactive) | 46.8 µM (inactive) | 20.3 µM (inactive) | 24 µM (inactive) | 25.6 µM (inactive) | 60.5 µM (inactive) | 19.3 µM (inactive) | 31.9 µM (inactive) | 72.8 µM (inactive) | 34.7 µM (inactive) | 29.2 µM (inactive) | 26.7 µM (inactive) | 76.6 µM (inactive) | 54.8 µM (inactive) | 25.8 µM (inactive) | 22.9 µM (inactive) | 45.1 µM (inactive) | 30.6 µM (inactive) | 34.1 µM (inactive)
CCc1nc(N)nc(N)c1-c1ccc([N+](C)(C)C)cc1 | > 100 µM (inactive) | > 100 µM (inactive) | > 100 µM (inactive) | > 100 µM (inactive) | > 100 µM (inactive) | > 100 µM (inactive) | > 100 µM (inactive) | > 100 µM (inactive) | > 100 µM (inactive) | > 100 µM (inactive) | > 100 µM (inactive) | > 100 µM (inactive) | > 100 µM (inactive) | > 100 µM (inactive) | > 100 µM (inactive) | > 100 µM (inactive) | > 100 µM (inactive) | > 100 µM (inactive) | > 100 µM (inactive) | > 100 µM (inactive)
O=C1/C(=N/CCc2cc(Br)c(O)c(Br)c2)C=C(O)c2cccnc21 | 2.68 µM (inactive) | 1.59 µM (inactive) | 2.3 µM (inactive) | 0.918 µM (active) | 1.37 µM (inactive) | 7.78 µM (inactive) | 3.92 µM (inactive) | 4.75 µM (inactive) | 3.33 µM (inactive) | 1.52 µM (inactive) | 1.45 µM (inactive) | 1.78 µM (inactive) | 2.94 µM (inactive) | 2.1 µM (inactive) | 1.61 µM (inactive) | 2.22 µM (inactive) | 1.51 µM (inactive) | 2.72 µM (inactive) | 0.344 µM (active) | 5.04 µM (inactive)
O=C(O)c1ccccc1/C=C1/Nc2ccccc2C1=O | 57.3 µM (inactive) | > 100 µM (inactive) | > 100 µM (inactive) | 92.9 µM (inactive) | > 100 µM (inactive) | 51.8 µM (inactive) | > 100 µM (inactive) | > 100 µM (inactive) | > 100 µM (inactive) | > 100 µM (inactive) | > 100 µM (inactive) | > 100 µM (inactive) | 37.9 µM (inactive) | > 100 µM (inactive) | 48.8 µM (inactive) | > 100 µM (inactive) | > 100 µM (inactive) | 63.4 µM (inactive) | > 100 µM (inactive) | > 100 µM (inactive)
[N-]=[N+]=Nc1ccc(CNc2cc(=O)[nH]c(=O)[nH]2)cc1 | > 100 µM (inactive) | > 100 µM (inactive) | > 100 µM (inactive) | > 100 µM (inactive) | > 100 µM (inactive) | > 100 µM (inactive) | > 100 µM (inactive) | > 100 µM (inactive) | > 100 µM (inactive) | > 100 µM (inactive) | > 100 µM (inactive) | > 50.7 µM (inactive) | > 100 µM (inactive) | > 100 µM (inactive) | > 100 µM (inactive) | > 100 µM (inactive) | > 100 µM (inactive) | > 100 µM (inactive) | > 49.2 µM (inactive) | > 100 µM (inactive)
O=C(CSc1nc(O)nc2[nH]cnc12)Nc1ccccc1 | > 100 µM (inactive) | > 100 µM (inactive) | > 100 µM (inactive) | 26.2 µM (inactive) | 86.9 µM (inactive) | > 100 µM (inactive) | 36.6 µM (inactive) | > 100 µM (inactive) | > 100 µM (inactive) | > 100 µM (inactive) | > 100 µM (inactive) | > 100 µM (inactive) | > 100 µM (inactive) | > 100 µM (inactive) | 44.6 µM (inactive) | 57.5 µM (inactive) | 80.7 µM (inactive) | > 100 µM (inactive) | 53.1 µM (inactive) | > 100 µM (inactive)
O=C(Nc1ccccc1)c1cc(S(=O)(=O)Nc2nc3cccnc3[nH]2)c(SSc2cc(Cl)c(C(=O)Nc3ccccc3)cc2S(=O)(=O)Nc2nc3cccnc3[nH]2)cc1Cl | > 100 µM (inactive) | > 100 µM (inactive) | > 100 µM (inactive) | > 100 µM (inactive) | > 100 µM (inactive) | > 100 µM (inactive) | > 100 µM (inactive) | > 100 µM (inactive) | > 100 µM (inactive) | > 100 µM (inactive) | > 100 µM (inactive) | > 100 µM (inactive) | > 100 µM (inactive) | > 100 µM (inactive) | > 100 µM (inactive) | > 100 µM (inactive) | > 100 µM (inactive) | > 100 µM (inactive) | > 100 µM (inactive) | > 100 µM (inactive)
CN(C)CCN(c1ccccn1)c1ccccn1 | > 100 µM (inactive) | > 100 µM (inactive) | > 100 µM (inactive) | > 100 µM (inactive) | > 100 µM (inactive) | > 100 µM (inactive) | > 100 µM (inactive) | > 100 µM (inactive) | > 100 µM (inactive) | > 100 µM (inactive) | > 100 µM (inactive) | > 100 µM (inactive) | > 100 µM (inactive) | > 100 µM (inactive) | > 100 µM (inactive) | > 100 µM (inactive) | > 100 µM (inactive) | > 100 µM (inactive) | > 100 µM (inactive) | > 100 µM (inactive)
Cc1[nH]n(-c2ncc(C(=O)O)c(=O)[nH]2)c(=O)c1CCO | > 100 µM (inactive) | > 100 µM (inactive) | > 100 µM (inactive) | > 84.9 µM (inactive) | > 100 µM (inactive) | > 100 µM (inactive) | > 100 µM (inactive) | > 100 µM (inactive) | > 100 µM (inactive) | > 100 µM (inactive) | > 100 µM (inactive) | > 100 µM (inactive) | > 100 µM (inactive) | > 85.3 µM (inactive) | > 92.7 µM (inactive) | > 100 µM (inactive) | > 100 µM (inactive) | > 100 µM (inactive) | > 100 µM (inactive) | > 100 µM (inactive)
COc1cc(N2C(=O)C(=O)C3(CCCCC3)C2=O)cc(OC)c1OC | > 100 µM (inactive) | > 100 µM (inactive) | > 100 µM (inactive) | > 100 µM (inactive) | > 100 µM (inactive) | > 100 µM (inactive) | > 100 µM (inactive) | > 100 µM (inactive) | > 100 µM (inactive) | > 100 µM (inactive) | > 100 µM (inactive) | > 100 µM (inactive) | > 100 µM (inactive) | > 100 µM (inactive) | > 100 µM (inactive) | > 100 µM (inactive) | > 100 µM (inactive) | > 100 µM (inactive) | > 100 µM (inactive) | > 100 µM (inactive)
NP(=O)(OCC1=CC(=O)c2ccccc2C1=O)N(CCBr)CCBr (stereo not drawn) | 1.44 µM (inactive) | 3.02 µM (inactive) | 18.3 µM (inactive) | 3.99 µM (inactive) | 1.87 µM (inactive) | 3.48 µM (inactive) | 10.9 µM (inactive) | 8.49 µM (inactive) | 17.2 µM (inactive) | 4.26 µM (inactive) | 5.04 µM (inactive) | 4.23 µM (inactive) | 8.65 µM (inactive) | 4.17 µM (inactive) | 2.07 µM (inactive) | 5.82 µM (inactive) | 2.24 µM (inactive) | 16.4 µM (inactive) | 2.14 µM (inactive) | 0.843 µM (active)
C=CCN1C[C@H](C)N([C@H](c2ccc(C(=O)NC(CC)CC)cc2)c2cccc(OC)c2)C[C@H]1C | 33.9 µM (inactive) | 52.4 µM (inactive) | 75 µM (inactive) | 20.4 µM (inactive) | 26.2 µM (inactive) | 29 µM (inactive) | 31.1 µM (inactive) | 42.8 µM (inactive) | 66.4 µM (inactive) | 20.9 µM (inactive) | 81.8 µM (inactive) | – | 37.7 µM (inactive) | 33.9 µM (inactive) | 35.2 µM (inactive) | 34.6 µM (inactive) | 20.8 µM (inactive) | 46 µM (inactive) | 35.6 µM (inactive) | 22.6 µM (inactive)
Cc1ccc(-n2cc([Si](C)(C)C)nn2)s1 | > 100 µM (inactive) | > 100 µM (inactive) | > 100 µM (inactive) | > 100 µM (inactive) | > 100 µM (inactive) | > 100 µM (inactive) | 97.5 µM (inactive) | 48.4 µM (inactive) | > 100 µM (inactive) | > 100 µM (inactive) | > 100 µM (inactive) | > 100 µM (inactive) | – | > 100 µM (inactive) | > 100 µM (inactive) | > 100 µM (inactive) | > 100 µM (inactive) | > 100 µM (inactive) | > 100 µM (inactive) | > 100 µM (inactive)
